Experiment [1] has as its system BV-2. Description: Antiinflammatory activity in mouse BV2 cells assessed as reduction in LPS-induced nitric oxide production. It is filed as functional, cell-based.
A short description of experiment [2]: Antioxidant activity assessed as DPPH radical scavenging activity. The class given is functional. For orientation: DPPH is a stable violet radical that fades when it is reduced.
Experiment [3] has as its system HL-60. Nature of the experiment: Cytotoxicity against human HL-60 cells assessed as reduction in cell viability. The class given is functional, cell-based.
The test system of the next experiment is Pichia kudriavzevii. Description: Antifungal activity against Candida krusei assessed as inhibition of fungal growth measured after 48 hrs by CLSI based agar dilution method. It is filed as functional, organism-based. In general terms: In agar dilution the substance is mixed into plates at graded concentrations.
Experiment [4] concerns BV-2. Description: Antiinflammatory activity in mouse BV2 cells assessed as reduction in LPS-induced nitric oxide production at 10 uM relative to control. It is filed as functional. Set-up: scale not given: the % may be the effect or the level left.
Experiment [5] deals with RAW264.7. Description: Antiinflammatory activity in mouse RAW264.7 cells assessed as reduction in LPS-induced nitric oxide production. The class given is functional, cell-based. Particulars: Mus musculus, RAW264.7.
A short description of experiment [6]: Antioxidant activity assessed as hydrogen peroxide scavenging activity. It is filed as functional.
The subject of experiment [7] is RAW264.7. Description: Antiinflammatory activity in mouse RAW 264.7 cells assessed as inhibition of LPS-induced nitric oxide production measured after 48 hrs by Griess reagent assay. The class given is functional, cell-based. Particulars: RAW264.7, 48 h. In general terms: The Griess reaction detects nitrite, a stable product of nitric oxide.
For experiment [8], the system named is Mus musculus. Description: Anxiolytic activity in mouse assessed as number of entries in open arm at 5 mg/kg, po measured after 60 mins by elevated plus maze test. It is filed as functional. Particulars: 1 h.
The test system of experiment [9] is Mus musculus. Nature of the experiment: Anxiolytic activity in mouse assessed as increase in time spent in open arm at 5 mg/kg, po measured after 60 mins by elevated plus maze test. It is filed as functional. Particulars: 1 h.
For experiment [10], the system named is Staphylococcus aureus. Nature of the experiment: Antibacterial activity against Staphylococcus aureus ATCC 43300 assessed as inhibition of bacterial growth. The class given is functional, organism-based.
Experiment [11] deals with Staphylococcus aureus. Description: Antibacterial activity against Staphylococcus aureus ATCC 25923 assessed as inhibition of bacterial growth. The class given is functional, organism-based.
Experiment [12] relates to Staphylococcus aureus. Nature of the experiment: Antibacterial activity against Staphylococcus aureus ATCC 29213 assessed as inhibition of bacterial growth. It is filed as functional, organism-based.
Experiment [13] relates to K562. Nature of the experiment: Cytotoxicity against human K562 cells assessed as reduction in cell viability. It is filed as functional, cell-based.
A further experiment has as its system A549. Nature of the experiment: Cytotoxicity against human A549 cells assessed as reduction in cell viability. The class given is functional, cell-based.
For another experiment, the system named is SGC-7901. Description: Cytotoxicity against human SGC-7901 cells assessed as reduction in cell viability. The class given is functional, cell-based. Particulars: sgc-7901.
The test system of another experiment is MeWo. Description: Cytotoxicity against human MeWo cells by MTT assay. It is filed as functional, cell-based.
The subject of another experiment is B16-F10. Nature of the experiment: Cytotoxicity against mouse B16-F10 cells by MTT assay. The class given is functional, cell-based.
For the next experiment, the system named is CT26.WT. Nature of the experiment: Cytotoxicity against mouse CT26.WT cells by MTT assay. It is filed as functional, cell-based.
The next experiment has as its system CHO. Description: Cytotoxicity against CHO cells by MTT assay. It is filed as functional, cell-based. Particulars: Cricetulus griseus.
For experiment [14], the system named is K562. Nature of the experiment: Induction of cell cycle arrest in human K562 cells measured for 24 hrs. It is filed as functional, cell-based. Particulars: K562, 24 h.
In a further experiment the test system is PC-3. Description: Induction of cell cycle arrest in human PC-3 cells measured for 24 hrs. It is filed as functional, cell-based. Particulars: PC-3, 24 h.
A short description of experiment [15]: Inhibition of elastase (unknown origin). Set-up: species or system Homo sapiens.
The test system of experiment [16] is HL-60. Description: Cytotoxicity against human HL-60 cells assessed as reduction in cell viability by MTT assay. It is filed as functional, cell-based.

Converted amounts (≈) assume the structure as drawn. “And” between values parts separate entries of the source, which are not always exact repeats. Equal entries are not always repeated.

Broadly, the IC50 is the point on the concentration scale where inhibition reaches its midpoint. In general, EC50 refers to the midpoint of the concentration-response curve.

For the compound `OC[C@H]1O[C@@H](O[C@H]2[C@H](O)[C@@H](O)[C@H](Oc3ccc4ccc5ccc(O)cc5c4c3O)O[C@@H]2CO)[C@H](O)[C@@H](O)[C@@H]1O`, in the experiment with BV-2 [1], the IC50 amounted to 15.3 µg/mL (≈ 27.8 µM).

`COc1cc(O)c2c(c1-c1c(OC)cc(O)c3c1ccc1cc(O)ccc13)CCc1cc(O)ccc1-2`: the IC50 is 15.1 µg/mL in [2] and 7.3 µg/mL in the experiment with HL-60 [3] (Homo sapiens, HL-60, read-out: IC50).

`COc1cc(O)c2c(c1Cc1ccc(O)cc1)CCc1cc(O)ccc1-2`: the IC50 in experiment [2] came out at 12.2 µg/mL.

Take `OC(Cn1cncn1)(Cn1cncn1)c1ccc(F)cc1F` [FLUCONAZOLE]: the IC50 with Pichia kudriavzevii was determined as 32 µg/mL (≈ 104 µM).

As for `Cc1c(O)cc2c3c1CCc1c(C)c(O)cc(c1-3)C2C`, the Activity with BV-2 [4] was found to be 11.2%.

Consider `COc1cc(O)c(-c2cc3c(cc2O)CCc2cc(OC)cc(O)c2-3)c(CCc2cccc(O)c2)c1`, for which, in experiment [2], the EC50 was determined as 55.9 µM.

Regarding `O=c1c(O)c(-c2ccc(O)c(O)c2)oc2cc(O)cc(O)c12` [QUERCETIN], the IC50 in the experiment on RAW264.7 [5] amounted to 6.6 µM.

In the case of `COc1cc2cc(O)cc(OC)c2c2c(O)cccc12`, the results for the IC50 (in experiment [2] (read-out: IC50); in the experiment with RAW264.7 [5]; in experiment [6]) were 6.8 µM, 24.1 µM and 19 µM, respectively.

As to `Oc1cc2c3c(c1)COc1cc(O)cc(c1-3)CC2`, the IC50 came out at 6.6 µM in [2] (read-out: IC50) and 0.08 µM in experiment [6].

For the compound `C=Cc1c(C)c(O)cc2c1-c1ccc(O)c(C)c1CC2`, in the experiment with RAW264.7 [7], the IC50 turned out to be 3.1 µM. The Activity in the experiment with Mus musculus [8] is listed as 6.6. Also, the Time with Mus musculus [9] stood at 58.8 s.

In the case of `COc1cc(O)c(-c2c(O)cc(OC)c3c2ccc2cc(O)ccc23)c2c1-c1ccc(O)cc1CC2` [CIRRHOPETALANTHRIN], the IC50 with Staphylococcus aureus [10], in the experiment with Staphylococcus aureus [11] and in the experiment with Staphylococcus aureus [12] was 25 µg/mL (≈ 52 µM) throughout.

As to `COc1cc(O)c(-c2c(O)cc(OC)c3c2ccc2cc(O)ccc23)c2ccc3cc(O)ccc3c12` [CIRRHOPETALANTHIN], the IC50 in the experiment with Staphylococcus aureus [10], with Staphylococcus aureus [11] and in the experiment with Staphylococcus aureus [12] was 6.25 µg/mL (≈ 13.1 µM) throughout.

Regarding `COc1cc(O)cc2c1-c1ccc(O)cc1CC2`, the IC50 was 16.7 µM and 8.5 µM in experiment [2] (read-out: IC50); 0.08 µM in experiment [6].

Turning to `COc1cc(O)c2c(c1)CCc1cc(-c3c(OC)cc(O)c4c3CCc3cc(O)ccc3-4)c(O)cc1-2`, the IC50 in the experiment with K562 [13] is 2.8 µM; in the experiment with A549 it was 1.2 µM; in the experiment on HL-60 [3] (hl-60), 4 µM; in the experiment on SGC-7901, 6.1 µM.

As to `COc1cc2c(c(O)c1C)CCc1c-2ccc(O)c1C=O`, the IC50 with MeWo is 5 µg/mL (≈ 17.6 µM); in the experiment with B16-F10, 8 µg/mL (≈ 28.1 µM); in the experiment on CT26.WT, 4 µg/mL (≈ 14.1 µM); with CHO, 6 µg/mL (≈ 21.1 µM); in the experiment with Pichia kudriavzevii, 31.3 µg/mL (≈ 110 µM).

Regarding `COC1=CC(=O)c2ccc3cc(OC)cc(O)c3c2C1=O` [DENBINOBIN], the IC50 in the experiment on K562 [14] amounted to 1.8 µM; in the experiment with PC-3 it was 7.5 µM.

Take `COc1cc(O)cc2ccc3cccc(O)c3c12` [MOSCATIN]: in experiment [2] (read-out: IC50), the IC50 came out at 9.2 µM.

With `Oc1ccc(/C=C/c2cc(O)cc(O)c2)cc1` [RESVERATROL], in experiment [2], the EC50 was determined as 21.2 µM. The IC50 in experiment [2] (read-out: IC50) came out at 28.7 µM.

`COc1c(O)cc2ccc3c(OC)c(O)ccc3c2c1OC`: the IC50 in [2] (read-out: IC50) amounted to 12.9 µM.

Regarding `COc1c(O)cc2c3c1COc1cc(O)c(Cc4ccc(O)cc4)c(c1-3)CC2`, in the experiment on RAW264.7 [5], the IC50 amounted to 20.8 µM.

For `Cc1c(C)c2c(c(C)c1O)CCC(C)(C(=O)O)O2` (configuration not stated) [TROLOX], the IC50 in experiment [2] (read-out: IC50) amounted to 11.7 µM.

Take `COc1cc(O)c2c(c1)CCc1cc(-c3cc(OC)c4c(c3O)CCc3cc(O)ccc3-4)c(O)cc1-2`: the results for the 50% inhibitory concentration (IC50) with K562 [13], in the experiment with A549 and in the experiment with HL-60 [3] (hl-60) were 6.1 µM, 9.2 µM and 1.3 µM, respectively.

In the case of `COc1cc2c(c(OC)c1O)-c1ccc(O)cc1CC2` [FLAVANTHRIDIN], in experiment [6], the IC50 came to 2 µM.

As to `C=Cc1c(C)c(O)cc2c1CCc1c-2ccc(O)c1C`, the IC50 in the experiment on RAW264.7 [7] was found to be 4.9 µM; in experiment [15], 5.5 µM.

On to `COc1cc(O)cc2cc(O)c3cccc(OC)c3c12`, for which, in [2] (read-out: IC50), the IC50 was 59.8 µM.

In [15], `O=c1cc(N2CCOCC2)oc2c(-c3ccccc3)cccc12` [LY-294002] gave an IC50 of 4.8 µM.

For the compound `C=Cc1cc(O)cc2c1-c1cc(-c3c(O)cc(C=C)c4c3ccc3c(C)c(O)ccc34)c(O)c(C)c1CC2`, the IC50 in the experiment with RAW264.7 [5] amounted to 7.4 µM.

For the compound `COC1=C(OC)C(=O)c2c(ccc3cccc(O)c23)C1=O`, in the experiment with HL-60 [16], the IC50 is 4.7 µM.

Turning to `C=Cc1ccc(CO)c2c1-c1ccc(O)c(C)c1CC2`, the IC50 in the experiment with RAW264.7 [5] is 14.4 µM.

Source of the values: ChEMBL document CHEMBL5244207, “Phenanthrenes: A Promising Group of Plant Secondary Metabolites” (J Nat Prod, 2018).
